In PMC10003956, “To the Understanding of Catalysis by D-Amino Acid Transaminases: A Case Study of the Enzyme from Aminobacterium colombiense” (Molecules, 2023):

Legend:
AmicoTA [1] = target: T1, AmicoTA (Aminobacterium colombiense, UniProt D5EHC5); assay: half-reaction of PLP form, absorbance at […] nm; assay type: binding
T1 construct: gene Amico_1844; N-terminal His6-TEV tag kept for kinetics, cut for crystals; E. coli Rosetta (DE3) pLysS

AmicoTA [2] = target: T1, AmicoTA; assay: X-ray crystal structure, […] Å; assay type: binding; conditions: covalent, Schiff base with K142; tag-free protein

T1 sequence (D5EHC5 entry or part of it): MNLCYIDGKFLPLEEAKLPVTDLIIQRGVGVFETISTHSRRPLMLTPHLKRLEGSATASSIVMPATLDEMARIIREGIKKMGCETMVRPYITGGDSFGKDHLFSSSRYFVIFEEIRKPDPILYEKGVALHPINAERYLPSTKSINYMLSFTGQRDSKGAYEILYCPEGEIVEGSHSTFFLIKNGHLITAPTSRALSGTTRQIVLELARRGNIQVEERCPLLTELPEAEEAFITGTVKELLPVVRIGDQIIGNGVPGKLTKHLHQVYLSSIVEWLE

| Structure (SMILES) | Kd (AmicoTA [1]) [mM] | X-ray crystal structure, 1.9 Å (AmicoTA [2]) |
| --- | --- | --- |
| CC(C)C[C@@H](N)C(=O)O [D-leucine] | 100 ± 10 | – |
| N[C@H](Cc1ccccc1)C(=O)O [D-phenylalanine] | 19 ± 3 | – |
| N[C@H](CCC(=O)O)C(=O)O [D-glutamate] | 2.1 ± 0.2 | – |
| C[C@@H](N)C(=O)O [D-alanine] | 50 ± 6 | – |
| Cc1ncc(COP(=O)(O)O)c(C=O)c1O [PLP] | – | bound via Schiff base linkage with K142 |
